According to a melting point compilation (Tetko et al.; mined from patent text by program, amines drawn as free bases though some values may be those of a salt):

Row | melting point | Compound
1 | 198 to 200 °C | O=c1[nH]ncc(Cl)c1NCCCN1CCC(c2noc3cc(F)ccc23)CC1
2 | 218 to 220 °C | COc1ccc(-c2cc3cc(OC)cc(C(=O)O)c3o2)cc1
3 | 176 to 178 °C | CCc1nn(C2CCCC2)c2cc(C(=O)Nc3cccc4ncccc34)ccc12
4 | 167 to 174 °C | O=C(c1ccco1)N1CCN(Cc2ccc(-c3cc4ncnc(Nc5ccc6[nH]ccc6c5)c4s3)cc2)CC1
5 | 125 °C | O=c1[nH]nc(OCC2c3ccccc3-c3ccccc32)o1
6 | 118 to 119 °C | C=CCc1cc(-c2csc(-c3ccc(OCC)c(OCC)c3)n2)cc(C(=O)OC)c1O
7 | 150 to 152 °C | NC(=O)c1c(F)ccc(OCc2cc3cc(C(F)(F)F)ccc3s2)c1F
8 | 247 to 248 °C | CC(C)(C)c1cc(CCC(=O)O)cc2nc(-c3ccc(-c4nc5cc(CCC(=O)O)cc(C(C)(C)C)c5o4)s3)oc12
9 | 127 °C | C[C@H](Nc1nc(NC=O)nc([C@@H](C)F)n1)C1CCCCC1
10 | 260 to 262 °C | CC(C)C(=O)OC1c2nccnc2C(=O)N1c1ccc2ccc(Cl)nc2n1 (stereo not given)
11 | 78 °C | CC(C)(C)OC(=O)c1ccc(OCCNC(=O)C2Cc3ccccc3N2S(=O)(=O)c2ccc(-c3ccc(F)cc3Cl)cc2)cc1 (stereo not given)
12 | 221 to 223 °C | Cn1nc(S(N)(=O)=O)c2c(F)cccc21
13 | 67 to 68 °C | CCCCCC1CC=C(c2ccc(Br)cc2)CC1 (stereo not given)
14 | 155 to 156 °C | CN(C)C=NS(=O)(=O)c1cc(CCNC(=O)C(F)(F)F)ccc1I
15 | 212 to 213 °C | O=S(=O)(c1ccccc1)N1CCC(Nc2nc(OCC(F)(F)F)nc(N3CCCC3)n2)CC1
16 | 166 to 169 °C | CCOC(=O)c1ccc(NC(=O)C=C(c2ccccc2)c2ccccc2)cc1
17 | 89 to 91 °C | O=C(O)C(F)Oc1ccc(Cl)cc1Cl (stereo not given)
18 | 136 to 137 °C | O=C(c1ccc([N+](=O)[O-])c([N+](=O)[O-])c1)N1CCOCC1
19 | 84 to 86 °C | N#Cc1ccccc1Oc1ccc(Cl)cc1
20 | 177 to 178 °C | Cc1c(C=O)c2c(c(C)c1NC(=O)CC(C)(C)C)C(c1ccc(C(C)C)cc1)CO2 (stereo not given)
21 | 102 °C | C1CSC(SSCCSSC2=NCCS2)=N1
22 | 140 to 141 °C | Cc1cc(SCc2ccc(-c3ccc(C(F)(F)F)cc3)cc2)ccc1OCC(=O)O
23 | 222 to 224 °C | CC1=NC(NC(=O)Nc2cccc(C)c2)C(=O)N(CC(=O)N2CCN(CCO)CC2)c2c(C)cccc21 (stereo not given)
24 | 149 to 150 °C | O=C1OC(COc2ccc(CO)cc2)CN1c1ccc(Cl)cc1 (stereo not given)

Row | melting point | Compound
25 | 159 to 160 °C | CCC(Oc1ccc(C)cc1C)C(=O)OC1CC(O)C=C2C=CC(C)C(CCC3CC(O)CC(=O)O3)C21 (mixture of isomers)
26 | 140 to 142 °C | CCS(=O)(=O)Nc1ccc2c(c1)S(=O)(=O)C=C(c1c(O)c3cc(F)ccc3n(CCC3CC3)c1=O)N2
27 | 100 to 101 °C | C[N+](C)(CCl)CCCC(=O)[O-]
28 | 66 to 68 °C | COC(=O)CC[C@@H](C(N)=O)N1Cc2c(OCc3ccc(CN4CCOCC4)cc3)cccc2C1=O
29 | 169 to 171 °C | O=C1NCc2c(Cl)nc3ccccc3c21
30 | 203 to 206 °C | Nc1cccc(-c2ccc(-c3ccccc3)cc2)c1N
31 | 155 to 156 °C | CC(C)(C)c1cc(C(O)C#Cc2ccc(C(=O)O)cc2)cc(C(C)(C)C)c1OCOCC[Si](C)(C)C (stereo not given)
32 | 279 to 280 °C | C#CCN1C(Oc2ccc(C)cc2)=NS(=O)(=O)N=C1Oc1ccc(C)cc1
33 | > 280 °C | NC(=O)NN=C1c2ncc(Cl)cc2C=CC1Cl (stereo not given)
34 | 86 to 87 °C | CSc1ccc(C(O)CBr)cc1Cl (stereo not given)
35 | 138 to 140 °C | C=CCN1CC(c2ccc(NC(=O)OCc3ccccc3)cc2F)CCS1(=O)=O (stereo not given)
36 | 142 to 144 °C | O=C1C(=Cc2ccc(Cl)cc2)CCCC1=Cc1ccc(Cl)cc1
37 | 125 to 127 °C | OC[C@@H](O)[C@@H](O)[C@H](O)[C@H](O)CCl
38 | 105 to 107 °C | Cc1ccc(N2CCc3cc(Br)ccc32)c([N+](=O)[O-])c1
39 | 212 to 215 °C | COc1cccc(C=CC(=O)C2=C(O)C(=C(C)Nc3ccccc3N)C(=O)OC2=O)c1OC
40 | 137 °C | CCn1cc(CN(C(=O)C2CCCc3cc(OCCO)ccc32)c2ccc(C(C)C)cc2)cn1 (stereo not given)
41 | 162 to 165 °C | COc1ccc2c(c1)C(=O)NC(C(Cl)(Cl)Cl)O2 (stereo not given)
42 | 106 to 108 °C | CC(/C=C/c1c(C)sc(C)c1C)=C(F)\C=C\C(C)=C\CO
43 | 280 °C | Cc1cc(-c2cc(C(F)(F)F)nc(-c3ccnc(-c4ccc(S(N)(=O)=O)s4)c3)n2)ccc1Cl
44 | 120 to 122 °C | CCOc1c(Br)ccc(C(=O)CC(=O)C2CC2)c1N(C)S(C)(=O)=O
45 | 220 to 221 °C | CN=c1[nH]c2ccccc2c2nc(-c3ccc[nH]3)nn12
46 | 67.2 to 68.2 °C | CCCC(=O)c1cccc2cc[nH]c12
47 | 144 to 147 °C | Cc1cc(N(C)C)cc(C)c1NC(NCCCCCCCc1ccc(C(C)(C)C)cc1)=C1C(=O)COC1=O
48 | 315 to 320 °C | CCCn1cc2c(C3C(=O)Nc4ccc(Br)cc43)nc(NC3CCNC3)nc2n1 (stereo not given)

Row | melting point | Compound
49 | 92 to 95 °C | CCCCc1nn2cccc(C(=O)OC)c2c1Cc1ccc(-c2ccccc2C#N)cc1
50 | 182 to 184 °C | CCCCN1Nn2c(c3ncnc-3c3cccnc32)N1CC(C)C
51 | 136 to 137 °C | CCCCCCCCCCc1ccc(C(N)(CO)CO)cc1
52 | 238 to 240 °C | CP(=O)(O)c1ccc(C(=O)O)cc1
53 | 108 to 110 °C | c1cc2nnnn2cc1C1CO1 (stereo not given)
54 | 195 to 197 °C | CN1CCCC(c2nc(-c3ccncc3)c(-c3ccc(F)cc3)[nH]2)C1 (stereo not given)
55 | 66.2 °C | Brc1ccc2c(c1)OCCN2C1CCOCC1
56 | 154 to 156 °C | O=C1OCC(C(F)(F)F)N1c1nc(-c2ccc(Br)cc2)cs1 (stereo not given)
57 | 128 to 131 °C | Cc1ccc(S(=O)(=O)NCC(Cc2ccccc2)NS(=O)(=O)c2ccc(C)cc2)cc1 (stereo not given)
58 | 231 to 232 °C | O=C(Nc1cccc(Cl)c1)c1cc(Br)ccc1O
59 | 208 to 210 °C | CCOC(=O)c1cnc2c(c(C)nc3cc(C)nn32)c1NC
60 | > 300 °C | Clc1ccc(-c2cnc3cc4cn[nH]c4cc3n2)s1
61 | 296 °C | CSc1cc2c(cc1F)C(=O)C(=O)N2
62 | 212 to 214 °C | Cc1ccccc1N1CCN(CCn2c(=O)[nH]c3ccsc3c2=O)CC1
63 | 106 °C | CCOc1ccc(-c2cc(C3CCCCC3)nc(C3CCCCC3)c2)cc1
64 | 67 to 73 °C | CN=C(Cl)c1ccc([N+](=O)[O-])cc1
65 | 80 to 82 °C | Cc1cc(C(C)(C)C)cc(C)c1[N+](=O)[O-]
66 | 222 °C | COc1cc2nc(N3CCN(C(=O)CC(O)c4ccccc4)CC3)nc(N)c2cc1OC (stereo not given)
67 | 149 to 150 °C | O=C1OC2(CC(c3ccccc3C(F)(F)F)=NO2)c2ccccc21 (stereo not given)
68 | 104 to 105 °C | COc1ccc(C2CCN(C(=O)NCc3ccccn3)CC2)cc1OC1CCCC1
69 | 154 to 156 °C | Cc1ccc2c(c1O)NC(O)C1CCCN1C2=O (stereo not given)
70 | 260 to 263 °C | CCn1ncc2c(NCc3cccc(OC)c3)c3ccccc3nc21
71 | 172 to 174 °C | CCCCCCCCCCCCCC(=O)Nc1ccc(Cl)c(NC2=NN(c3c(Cl)cc(Cl)cc3Cl)C(=O)C2n2ccnc2)c1 (stereo not given)
72 | 181 to 182 °C | CC(=O)NC1C(NC(=O)NCCCl)OC(CO)C(O)C1O (stereo not given)

Row | melting point | Compound
73 | 78 to 80 °C | CCn1ncc2nc(C#N)c(OCCC(C)C)nc21
74 | 167 to 169 °C | CC(C)n1c(CO)c(-c2ccc(F)cc2)c(-c2ccccc2)c1C(=O)NCCc1cccnc1
75 | 106 to 108 °C | COc1ccc(-c2nc(-c3cccn3CC(=O)OCC(C)C)sc2-c2ccc(OC)cc2)cc1
76 | 197 to 200 °C | Oc1ccc(N2CCN(Cc3c[nH]c4ncccc34)CC2)cc1
77 | 155 to 160 °C | Cn1c(C(=O)NCCCO)c2ccc(Cl)cc2c1-c1ccccc1
78 | 128 to 129 °C | COCCOc1ccc(CCCOc2cc(CCC(=O)O)n(-c3ccccc3)n2)c(Oc2ncc(C(F)(F)F)cc2Cl)c1
79 | 215 to 217 °C | COc1cc2ncnc(N3CCN(C(=O)Nc4ccc(N)cc4)CC3)c2cc1OC
80 | 118 to 120 °C | Cc1ccc2c3c(ccc2n1)OC[C@H](CN1CCN(c2ccc(C)c(C)c2)CC1)O3
81 | 76 °C | CC(C)(C(=O)C=Cc1ccc(F)cc1)C1OCCO1
82 | 78 to 82 °C | Fc1ccc2c(C3CCN(CC4=Cc5ccccc54)CC3)noc2c1
83 | 82 °C | CC(C)(C)C(=O)C(=Cc1ccc(Cl)cc1)n1cncn1
84 | 151 to 152 °C | CCCCCCCCCCC(O)C[N+]1([O-])CCOCC1 (stereo not given)
85 | 54.4 to 56.5 °C | CCCCCCCc1ccc(-c2ccc(OC)cc2)nc1
86 | 166 to 168 °C | O=C1N(Cc2ccc(F)cc2)Cc2cncn2C1(Cc1ccccc1)c1ccc(Br)cc1 (stereo not given)
87 | 66 to 68 °C | CCCCCc1c(C(C)C)nc(C(C)C)c(C(O)CCCC)c1-c1ccc(F)cc1 (stereo not given)
88 | 88 to 91 °C | CCOCCOc1ccc(CCNC(=O)c2cnc3ccccc3c2)cc1S(=O)(=O)NC(=S)NC
89 | 89.5 °C | Nc1cc(F)c(N2CCOCC2)cc1Cl
90 | 197 to 200 °C | CC1=c2c(cc3c(c2C)C=C(C(=O)OCc2ccccc2)N=3)N=C1C(=O)OCc1ccccc1
91 | 231 to 233 °C | CCOC(=O)c1cn(C2CC2)c2c(F)c(N3CCN(C)CC3)c(F)c([Si](C)(C)C)c2c1=O
92 | 160 °C | CC(Oc1ccc2nc(N)sc2c1)c1c(F)ccc(Cl)c1F (stereo not given)
93 | 157 °C | COc1ccc(C(=O)Nc2cccc3[nH]ccc23)c(OCC2CO2)c1 (stereo not given)

Row | Compound | melting point
94 | CN1CC2c3ccccc3Cc3ncccc3N2C1 (stereo not given) | 127 to 129 °C
95 | CN1Cc2c(Cl)ncn2-c2cccnc2C1=O | 247 to 248 °C
96 | C[C@]12CC(I)C(=O)C=C1CC[C@@H]1[C@@H]2CC[C@]2(C)C(=O)CC[C@@H]12 (stereo not given in full) | 92 °C
97 | CCCCCCCNC(=O)Nc1ccccc1C(=O)NC1CCN(C(=O)Oc2ccccc2)CC1 | 142 to 144 °C
98 | COc1ccc(C2CCNCC2)cc1OC | 98 to 100 °C
99 | Brc1ccc(-c2cn([C@H]3CN4CCC3CC4)nn2)cc1 | 158 °C
100 | CC(=O)Nc1ccc(C#CCCN2CC=C(c3ccccc3)CC2)cc1 | 172 to 173 °C
